Laboratory results from ChEMBL document CHEMBL5226289, “Discovery of natural anti-inflammatory alkaloids: Potential leads for the drug discovery for the treatment of inflammation” (Eur J Med Chem, 2021).
Converted amounts (≈) assume the structure as drawn.

How the values were obtained:
Mus musculus [1] = assay: Analgesic activity in Swiss Webster albino mouse assessed as inhibition of acetic acid-induced writhing at 125 mg/kg, po pre-treated for 30 mins followed by acetic acid induction and measured for 15 mins relative to control; type: functional; settings: 0.75 h, time 45 min
Mus musculus [2] = assay: Antiinflammatory activity in Swiss Webster albino mouse assessed as inhibition of carrageenan-induced paw edema at 75 mg/kg, ip preadministered for 1 hrs followed by carrageenan induction and measured after 3 hrs by plethysmometer relative to control; type: functional; settings: time 4 hrs
Mus musculus [3] = assay: Antiinflammatory activity in carrageenan-induced peritoneal Swiss albino mouse model assessed as decrease in number of leukocyte cells at 100 umol/kg, po pre-treated for 30 mins followed by carrageenan induction and measured after 4 hrs relative to control; type: functional; parameters: scale not given: the % may be the effect or the level left; settings: dose 100 µmol/kg, time 4.5 hrs
Mus musculus [4] = assay: Antiinflammatory activity against capsaicin-induced ear edema Swiss albino mouse model assessed as inhibition of plasma extravasation at 100 umol/kg, po pre-treated with compound for 40 mins followed by capsaicin stimulation and measured after 30 mins relative to control; type: functional
HT-1080 [5] = assay: Antiinflammatory activity in human HT-1080 cells assessed as inhibition of IL-6 production; type: functional
HT-1080 [6] = assay: Antiinflammatory activity in human HT-1080 cells assessed as inhibition of TNF-alpha production; type: functional
Mus musculus [7] = assay: Antiinflammatory activity in croton oil-induced Swiss mouse model of ear edema assessed as reduction in MPO activity administered via surface of left ear measured after 6 hrs relative to control; type: functional; parameters: scale not given: the % may be the effect or the level left; settings: route au
Mus musculus [8] = assay: Antiinflammatory activity in Swiss mouse assessed as reduction in croton oil-induced ear edema administered via surface of left ear measured after 6 hrs relative to control; type: functional; parameters: scale not given: the % may be the effect or the level left; settings: route au
[9] = target: T1, Polyunsaturated fatty acid 5-lipoxygenase (Homo sapiens) (UniProt P09917); assay: Inhibition of 5-LOX (unknown origin) at 100 uM measured after 5 mins by colorimetric method relative to control
T1 sequence (whole entry): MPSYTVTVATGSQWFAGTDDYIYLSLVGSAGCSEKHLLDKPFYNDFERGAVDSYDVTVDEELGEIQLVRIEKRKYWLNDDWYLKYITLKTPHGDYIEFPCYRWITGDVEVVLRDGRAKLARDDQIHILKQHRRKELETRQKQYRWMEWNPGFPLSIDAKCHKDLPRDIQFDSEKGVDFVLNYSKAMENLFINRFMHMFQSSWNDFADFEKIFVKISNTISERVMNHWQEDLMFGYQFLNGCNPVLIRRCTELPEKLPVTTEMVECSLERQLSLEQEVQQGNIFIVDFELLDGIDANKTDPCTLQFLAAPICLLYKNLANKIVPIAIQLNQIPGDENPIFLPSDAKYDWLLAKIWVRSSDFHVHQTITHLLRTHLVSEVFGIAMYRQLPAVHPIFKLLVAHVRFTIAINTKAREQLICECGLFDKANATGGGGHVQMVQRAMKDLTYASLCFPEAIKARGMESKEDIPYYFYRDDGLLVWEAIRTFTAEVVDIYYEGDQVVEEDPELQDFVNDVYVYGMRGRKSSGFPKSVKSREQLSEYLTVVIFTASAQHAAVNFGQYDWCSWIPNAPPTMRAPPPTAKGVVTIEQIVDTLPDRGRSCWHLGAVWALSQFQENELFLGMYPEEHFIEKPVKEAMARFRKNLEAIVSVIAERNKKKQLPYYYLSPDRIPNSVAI

Mus musculus [10] = assay: Antiinflammatory activity in mouse assessed as inhibition of xylene-induced ear edema at 8 mg/kg, ip pre-treated for 30 mins followed by xylene administration and measured after 1 hrs relative to control; type: functional; settings: time 1.5 hrs
RAW264.7 [11] = assay: Inhibition of NO production in LPS-stimulated mouse RAW264.7 cells preincubated with compound for 24 hrs followed by LPS stimulation and measured after 2 hrs by Griess reagent-based assay; type: functional, cell-based
RAW264.7 [12] = assay: Antiinflammatory activity in mouse RAW264.7 cells assessed as inhibition of LPS-stimulated iNOS activity preincubated with compound for 24 hrs followed by LPS stimulation for 2 hrs and measured 2 hrs after NADPH addition by fluorescence based assay; type: functional, cell-based
[13] = Inhibition of TNF-alpha production in LPS-induced human U-937 cells preincubated with compound for 30 mins followed by LPS induction and measured after 4 hrs; type: functional, cell-based
RAW264.7 [14] = assay: Inhibition of NO production in LPS-stimulated mouse RAW264.7 cells preincubated with compound for 30 mins followed by LPS stimulation and measured after 24 hrs by Griess reagent-based assay; type: functional, cell-based
RAW264.7 [15] = assay: Antiinflammatory activity against LPS-stimulated mouse RAW264.7 cells assessed as reduction in iNOS protein expression at 10 uM relative to control; type: functional; parameters: scale not given: the % may be the effect or the level left
RAW264.7 [16] = assay: Antiinflammatory activity against LPS-stimulated mouse RAW264.7 cells assessed as reduction in COX-2 protein expression at 10 uM relative to control; type: functional; parameters: scale not given: the % may be the effect or the level left
RAW264.7 [17] = assay: Inhibition of NO production in LPS-stimulated mouse RAW264.7 cells preincubated with compound for 3 hrs followed by LPS stimulation and measured after 20 hrs by Griess reagent-based assay; type: functional, cell-based
[18] = Inhibition of LPS-induced NO production in mouse BV-2 cells […]; type: functional, cell-based
RAW264.7 [19] = assay: Antiinflammatory activity against mouse RAW264.7 cells assessed as inhibition of cell growth; type: functional, cell-based
J774.1 = assay: Inhibition of NO production in LPS-stimulated mouse J774.1 cells; type: functional, cell-based
RAW264.7 [20] = assay: Inhibition of NO production in LPS-stimulated mouse RAW264.7 cells preincubated with compound for 4 hrs followed by LPS stimulation and measured after 24 hrs by Griess reagent-based assay; type: functional, cell-based

With O=C1Oc2c(c3c(O)cc(O)cc3n2-c2ccc(O)cc2)C(=O)Oc2c1c1c(O)cc(O)cc1n2-c1ccc(O)cc1 the inhibition in vivo at 125 mg/kg (Mus musculus [1]) was 49.4% and the inhibition in vivo at 75 mg/kg (Mus musculus [2]) was 57.1%.

Work on COC(=O)/C1=C/c2c([nH]c3ccccc23)/C(C(=O)OC)=C\c2c1[nH]c1ccccc21 [CAULERPIN] yielded an Activity (Mus musculus [3]) of 48.3% and an inhibition in vivo at 100 µmol/kg (Mus musculus [4]) of 55.8%.

With Cc1cc(=O)c2c(O)c([C@H]3CCN(C)C[C@H]3O)c(O)cc2o1 the “inhibition (INH)” value (HT-1080 [5]) was 83% and the “inhibition (INH)” value (HT-1080 [6]) was 47%.

With CN1C[C@H](O)C[C@H]1C(=O)O the Activity (Mus musculus [7]) was 59.7% and the Activity (Mus musculus [8]) was 26.8%.

C/C=C1/CN2CC[C@@H]1[C@@](CO)(C(=O)OC)c1[nH]c3ccccc3c1C2 gave an inhibition [9] of 60.8% and an inhibition in vivo at 8 mg/kg (Mus musculus [10]) of 40.3%.

With C=CC(C)(C)c1[nH]c2cc3c(cc2c1/C=C1\NC(=O)[C@@H]2CCCN2C1=O)C=CC(C)(C)O3 the IC50 (RAW264.7 [11]) was 11.2 µM and the IC50 (RAW264.7 [12]) was 5.4 µM.

In the case of CCCCCCCCCC(=O)C/C(=C\c1cc(CCC)ncc1C(=O)OC)C(C)=O, the IC50 [13] is reported as 1.52 µM.

COc1c(O)ccc2c1cnc1c3cc4c(cc3ccc21)OCO4 [DECARINE] gave an IC50 (RAW264.7 [14]) of 48.4 µM.

For CSc1[nH]c2cc(Br)c(Br)c(Br)c2c1SC, the Activity (RAW264.7 [15]) was 2.8% and the Activity (RAW264.7 [16]) was 1.6%.

C=C1C=C2C=C[C@H](OC)C[C@@]23c2cc4c(cc2[C@@H](O)CN13)OCO4 gave an IC50 (RAW264.7 [17]) of 3.4 µg/mL (≈ 10.4 µM).

CC(C)=CCOc1ccc(CCNC(=O)c2ccccc2)cc1 gave an IC50 [18] of 4.9 µM.

COC(=O)[C@@]1(O)C2=Nc3c(O)cccc3[C@@]23C[C@H]2C[C@]4(C(C)=O)ON2[C@H]3C[C@H]14 showed an IC50 (RAW264.7 [19]) of 39.6 µM and an IC50 (J774.1) of 49.2 µM.

COc1cc(/C=C/CO)ccc1O[C@H]1CCCNC1=O gave an IC50 (RAW264.7 [20]) of 18.1 µM.
